Assay results taken from article PMC12582325 (Proceedings of the National Academy of Sciences of the …, 2025).
Several values for one entry are separate records, joined by “and”; a condition that tells them apart may be missing. Equal values may be shown once. Entries after “also recorded” stand apart in the source; their conditions may differ. Read-outs that look alike come from different tables or passages of the source. Where a SMILES comes first, the peptide text is derived from it.

Tests used:
[1] = system: Bb.Ste2; format: cell-based, Beauveria bassiana; conditions: for Diploid frequency (%): 20 h coculture; for diploid frequency (%) / average (diploid colonies): GPCR strain GEN47 HIS; for average (diploid colonies): dilution 500, mean of Rep1-3
[2] = system: Bc.Ste2; format: cell-based, Botrytis cinerea
[3] = system: F. oxysporum on tomato roots; experiment: Tomato root inoculation and fluorescence microscopy of infected roots; format: in vivo, Fusarium oxysporum / Solanum lycopersicum; conditions: exogenous addition of pheromone to microconidia; 3 d after inoculation; fluorescence microscopy
[4] = system: F. oxysporum microconidia; experiment: Germination of F. oxysporum microconidia; format: cell-based, Fusarium oxysporum f. sp. lycopersici 4287; parameters: Germination of F. oxysporum microconidia (data of Sup.Fig.10): unit not given here; conditions: for Germination of F. oxysporum microconidia (data of Sup.Fig.10): 400 μM pheromone, 13 h, at least 300 spores counted
Experimental: For F. oxysporum microconidia production, the strain was grown for 3 to 4 d in liquid potato dextrose broth (PDB) at 28 °C and 170 rpm. Germination media ([10]) was used for assessing the spore germination. RE was prepared by removing 2-wk-old tomato plants from vermiculite and washing the roots to remove any adhering substrates ([11]).
Supplementary Figure 10. Germination of F. oxysporum microconidia after 13 h of incubation in Germination Media at a cell density of […] microconidia/mL. The assay was performed with 400 μM of pheromone. All points represent the average of three biological replicates in which at least 300 spores were counted. Statistical significance was determined through one-way analysis of variance (ANOVA) with Dunnett’s multiple comparisons (✱p ≤ 0.05).

[5] = system: F. oxysporum infection of tomato plants; experiment: Tomato plant mortality assay; format: in vivo, Fusarium oxysporum / Solanum lycopersicum; conditions: groups of 10 plants; 3.2 × 10^6 microconidia/mL supplemented with pheromone once at inoculation; 50 d; Kaplan-Meier, log-rank
Experimental: Tomato plant infection assays were performed as described ([61]) with F. oxysporum microconidia and treatment inoculation as described above. Plants were transferred to a growth and plant survival was recorded daily for 50 d. Plant death was diagnosed as a complete collapse of the stem, without any green parts left. The Kaplan–Meier test was used to assess statistical significance of differences in survival among groups using the log-rank test in GraphPad Prism. The infection experiment was conducted two times with 10 plants per condition.

[6] = system: Bc.Ste2; format: cell-based, Botrytis cinerea; conditions: YPL1 library cocultured with Bc.Ste2 strain GEN89, 20 h, 2 d diploid enrichment, NextSeq 500
[7] = system: Fo.Ste2; experiment: YeMaP Library-on-One: YPL1 pheromone library enrichment by mating, NGS; format: cell-based, Fusarium oxysporum; conditions: YPL1 library cocultured with Fo.Ste2 strain GEN90, 20 h, 2 d diploid enrichment, NextSeq 500
[8] = system: Mo Ste2 GPCR; format: cell-based, Magnaporthe oryzae; conditions: Fig. 1D mating matrix; pheromone secreted by MATa strain, GPCR in MATα strain; deep well plate, 20 h coculture; three technical plating replicates
[9] = system: Fg.Ste2; format: cell-based, Fusarium graminearum; conditions: YPL1 library cocultured with Fg.Ste2 strain GEN87, 20 h, 2 d diploid enrichment, NextSeq 500
[10] = system: Bb.Ste2; format: cell-based, Beauveria bassiana
[11] = system: Fo.Ste2; format: cell-based, Fusarium oxysporum

C[C@@H](O)[C@H](NC(=O)[C@H](CS)NC(=O)[C@@H](N)Cc1c[nH]c2ccccc12)C(=O)N[C@@H](Cc1c[nH]c2ccccc12)C(=O)N[C@@H](CCCNC(=N)N)C(=O)NCC(=O)N[C@@H](CCC(N)=O)C(=O)N1CCC[C@H]1C(=O)N[C@@H](CS)C(=O)N[C@@H](Cc1c[nH]c2ccccc12)C(=O)O [Fo] (H-WCTWRGQPCW-OH; N-terminus assumed)
Diploid frequency (%) ([1]; Fig. 1D mating matrix, pheromone secreted by MATa strain, GPCR in MATα strain, deep well plate, three technical plating replicates): 0.7% | Diploid frequency (%) ([1]; Fig. 1F validation in culture tubes, secreted pheromone, three biological and three technical replicates): 4.9% | diploid frequency (%) ([1]; co-culture replicate 1): 4.61% | average (diploid colonies) ([1]; co-culture replicate 1): 22 | diploid frequency (%) ([1]; co-culture replicate 2): 3.74% | average (diploid colonies) ([1]; co-culture replicate 2): 17.67 | diploid frequency (%) ([1]; co-culture replicate 3): 6.44% | average (diploid colonies) ([1]; co-culture replicate 3): 31.33 | Effect on activation of Bc.Ste2 by Bc pheromone, in words ([2]; 0.0005 μM Bc pheromone in combination with 10 μM peptide, four biological replicates, Fig. 2G): do not differ significantly from Bc alone; also recorded: no such effect | Bc.Ste2 + pheromones, biosensor response, group mean ([2]; Bc + the named peptide, Bc alone mean 134.8, mean of n = 4): 104.9 | Adhesion of F. oxysporum germ tubes among themselves or to tomato roots [3]: increased adhesion | Germination of F. oxysporum microconidia (data of Sup.Fig.10) ([4]; biological replicate 1 (first line)): 23,4 | Germination of F. oxysporum microconidia (data of Sup.Fig.10) ([4]; biological replicate 2 (second line)): 23,3 | Germination of F. oxysporum microconidia (data of Sup.Fig.10) ([4]; biological replicate 3 (third line)): 13,3 | Mean Diff, Solvent vs. peptide ([4]; Sup.Fig.10, Dunnett's multiple comparisons test, n = 3): 23,77 | Mean 2 (peptide), germination ([4]; Sup.Fig.10, Solvent control mean 43,77, mean of n = 3): 20,00 | Effect on F. oxysporum microconidia germination, in words ([4]; exogenous addition of 400 μM peptide, 13 h in Germination Media, 3.2 x 106 microconidia/mL): significant reduction | Tomato plant survival [5]: no significant difference in plant survival | Enrichment after mating, reads per million minus library before coculture [6]: > 340,000 RPM | Enrichment after mating, reads per million minus library before coculture [7]: > 340,000 RPM | Diploid frequency (%) [8]: 0.0% | Enrichment after mating, reads per million minus library before coculture [9]: > 340,000 RPM | Activation of Bb.Ste2 biosensor, in words [10]: higher EC50 values | EC50 fold higher than that of the Bb pheromone [10]: 3,910 fold | Fold change yEGFP [10]: 178 | Hillslope [10]: 1.951 | half-maximal effective concentration (EC50) [10]: 0.958 µM | logEC50 [10]: -6.019 | Sup.Fig.7A - Fo, group mean [11]: 0.3879 and 0.4515 | average (diploid colonies) [11]: 68 and 129.67 and 80.33 | diploid frequency (%) [11]: 19.26% and 31.27% and 21.99% | diploid frequency (%), Plates, Fo [11]: 1.52% and 3.25% and 5.49% | diploid frequency (%), Plates, Fo ([11]; pH=6): 1.9% and 1.65% and 1.4% | diploid frequency (%), Plates, Fo ([11]; pH=7): 1.27% and 1.02% and 0.39% | Sup.Fig.7A - Fo, group mean ([11]; ph=6): 0.422 | Sup.Fig.7A - Fo, group mean ([11]; ph=7): 0.4837
